Laboratory results as given in patent US8481525B2, “Kinase inhibitors and method of treating cancer with same” (University of Health Network, priority 2009, dated 2013).

Tests used:
[1] = test system: HCC1954 basal breast cancer cell line; assay: Cell growth inhibition, Sulforhodamine B assay (SRB); assay type: cell-based; details: Homo sapiens, HCC1954, 120 h, read-out: Cell Line GI50 Range HCC-1954
In short: (§1)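 Growth inhibition is measured by SRB staining after 5 days of culture. Cells are fixed with cold 10% TCA, stained, washed with 1% acetic acid and read at 570 nm. Values are relative to DMSO-treated cells, with GI50 calculated for cytotoxic compounds.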

[2] = test system: SW620 colon cancer cell line; assay: as above; assay type: cell-based; details: Homo sapiens, SW-620, 120 h, read-out: Cell Line GI50 Range SW-620, SW620 colon cancer cell line; 5 days culture; SRB
In short: as §1

[3] = test system: 184A1 immortalized breast cell line; assay: Cell growth inhibition, SRB assay, extended panel; assay type: cell-based; details: 184A1, 120 h, read-out: GI50 Range
Procedure: (§2) The cells were cultured for 5 days before the Sulforhodamine B assay (SRB) was performed to determine the compound's cell growth inhibition activity.
(§3) Sulforhodamine B (purchased from Sigma, Oakville, ON, Canada) is a water-soluble dye that binds to the basic amino acids of the cellular proteins. Thus, colorimetric measurement of the bound dye provides an estimate of the total protein mass that is related to the cell number. the cells are fixed in situ by gently aspirating off the culture media and adding 50 μl ice cold 10% Trichloroacetic Acid (TCA) per well and incubate at 4° C. for 30-60 min, The plates are washed with water five times and allowed to air dry for 5 min. […] Following staining, plates are washed four times with 1% acetic acid to remove unbound dye and then allowed to air dry for 5 min. […] Absorbance is read at 570 nm.
(§4) The percentage (%) of relative growth inhibition was calculated by comparing to DMSO treated only cells (100%). GI50's were determined for compounds with cytotoxic activity. The GI50 was calculated using GraphPad PRISM software (GraphPad Software, Inc., San Diego, Calif., USA).
(§5) The sulforhodamine B assay (SRB) described above was use to assay test compounds against the extended panel (Table 6).

[4] = test system: BT474 breast cancer cell line; assay: Cell growth inhibition, SRB assay, extended panel; assay type: cell-based; details: Homo sapiens, BT-474, 120 h, read-out: GI50 Range
Procedure: as §2, §3, §4, §5

[5] = test system: HCT-15 colon cancer cell line; assay: Cell growth inhibition, SRB assay, extended panel; assay type: cell-based; details: Homo sapiens, HCT-15, 120 h, read-out: GI50 Range
Procedure: as §2, §3, §4, §5

[6] = test system: HCT116+/+ colon cancer cell line; assay: Cell growth inhibition, SRB assay, extended panel; assay type: cell-based; details: Homo sapiens, HCT-116, 120 h, read-out: GI50 Range
Procedure: as §2, §3, §4, §5

[7] = test system: HCT116+/− colon cancer cell line; assay: Cell growth inhibition, SRB assay, extended panel; assay type: cell-based; details: Homo sapiens, HCT-116, 120 h, read-out: GI50 Range
Procedure: as §2, §3, §4, §5

[8] = test system: PC-3 prostate cancer cell line; assay: Cell growth inhibition, SRB assay, extended panel; assay type: cell-based; details: 120 h, read-out: GI50 Range
Procedure: as §2, §3, §4, §5

[9] = test system: SK-OV-3 ovarian cancer cell line; assay: Cell growth inhibition, SRB assay, extended panel; assay type: cell-based; details: Homo sapiens, SK-OV-3, 120 h, read-out: GI50 Range
Procedure: as §2, §3, §4, §5

[10] = test system: SKBR3 breast cancer cell line; assay: Cell growth inhibition, SRB assay, extended panel; assay type: cell-based; details: Homo sapiens, SK-BR-3, 120 h, read-out: GI50 Range
Procedure: as §2, §3, §4, §5

[11] = test system: SW 626 ovarian cancer cell line; assay: Cell growth inhibition, SRB assay, extended panel; assay type: cell-based; details: Homo sapiens, SW626, 120 h, read-out: GI50 Range
Procedure: as §2, §3, §4, §5

[12] = test system: HUV-EC-C cells; assay: In Vitro Angiogenesis Assay (tube formation); details: HUV-EC-C cells on ECMatrix, 4 hr; FIGS. 1 and 2
[13] = test system: human mammary epithelial primary cells (HMEC); assay: Cell growth inhibition, Sulforhodamine B assay (SRB); details: 120 h, read-out: Cell Line GI50 Range HMEC

`CN(C)Cc1ccc(/C=C/c2n[nH]c3cc([C@@H]4C[C@@]45C(=O)Nc4ccccc45)ccc23)cc1` (racemic) [Example A23, (1R*,2S*)-(E)-2-(3-(4-((dimethylamino)methyl)styryl)-1H-indazol-6-yl)spiro[cyclopropane-1,3′-indolin]-2′-one 2,2,2-trifluoroacetate] gave a GI50 [1] of 1 to 10 µM, a GI50 [2] of under 0.1 µM and a GI50 [3] of 1 to 50 µM. For the same compound, the GI50 [4] was 1 to 50 µM, the GI50 [5] was 1 to 50 µM and the GI50 [6] was 1 to 50 µM. For the same compound, the GI50 [7] was 1 to 50 µM, the GI50 [8] was 1 to 50 µM and the GI50 [9] was 1 to 50 µM. For the same compound, the GI50 [10] was 1 to 50 µM, the GI50 [11] was 1 to 50 µM and the “anti-angiogenic effect (tube formation, % of control tube count)” value [12] was “anti-agiogenic effects at submicromolar concentrations”. It also gave a GI50 [13] of over 10 µM.
